Source: publication PMC5218480 (PLoS ONE, 2017)

Test system: MV-4-11 cells
Experiment: Gene expression microarray analysis (Affymetrix PrimeView) and GSEA
Format: cell-based, human
Design: RFU PODN (11730768_x_at) / Fold change /veh PODN (11730768_x_at) / RFU LINC00158 (11744669_a_at) / Fold change /veh LINC00158 (11744669_a_at) / RFU DUSP10 (11751237_a_at) / Fold change /veh DUSP10 (11751237_a_at) / RFU ID3 (11757404_x_at) / Fold change /veh ID3 (11757404_x_at) / RFU PLEKHG5 (11737974_s_at) / Fold change /veh PLEKHG5 (11737974_s_at) / RFU LRRC4B (11730491_at) / Fold change /veh LRRC4B (11730491_at) / RFU GIMAP4 (11747438_a_at) / Fold change /veh GIMAP4 (11747438_a_at) / RFU KRT8 (11758183_x_at) / Fold change /veh KRT8 (11758183_x_at) / RFU CNN1 (11734310_a_at) / Fold change /veh CNN1 (11734310_a_at) / RFU VPS37D (11726825_at) / Fold change /veh VPS37D (11726825_at) / RFU C10orf10 (11716522_x_at) / Fold change /veh C10orf10 (11716522_x_at) / RFU KIR2DL2 /// KIR2DL4 /// KIR2DL5A /// KIR2DL5B /// KIR2DS1 /// KIR2DS2 /// KIR2DS3 /// KIR2DS4 /// KIR3DL3 /// KIR3DL3 /// KIR3DS1 (11738374_at) / Fold change /veh KIR2DL2 /// KIR2DL4 /// KIR2DL5A /// KIR2DL5B /// KIR2DS1 /// KIR2DS2 /// KIR2DS3 /// KIR2DS4 /// KIR3DL3 /// KIR3DL3 /// KIR3DS1 (11738374_at) / RFU C1QL1 (11718748_at) / Fold change /veh C1QL1 (11718748_at) / RFU TMPRSS4 (11747572_a_at) / Fold change /veh TMPRSS4 (11747572_a_at) / RFU HAMP (11756126_x_at) / Fold change /veh HAMP (11756126_x_at) / RFU RNFT2 (11725882_a_at) / Fold change /veh RNFT2 (11725882_a_at) / RFU NR4A2 (11747474_a_at) / Fold change /veh NR4A2 (11747474_a_at) / RFU ABCC12 (11746883_a_at) / Fold change /veh ABCC12 (11746883_a_at) / RFU TMEM136 (11760407_x_at) / Fold change /veh TMEM136 (11760407_x_at) / RFU CLDN22 /// WWC2 (11732394_at) / Fold change /veh CLDN22 /// WWC2 (11732394_at) / RFU HLA-DPB1 (11760878_x_at) / Fold change /veh HLA-DPB1 (11760878_x_at) / RFU SPINT1 (11716480_a_at) / Fold change /veh SPINT1 (11716480_a_at) / RFU GAP43 (11754022_s_at) / Fold change /veh GAP43 (11754022_s_at) / RFU A4GNT (11735810_at) / Fold change /veh A4GNT (11735810_at) / RFU PRB3 (11715151_x_at) / Fold change /veh PRB3 (11715151_x_at) / RFU TUBB4B (11761932_at) / Fold change /veh TUBB4B (11761932_at) / RFU CAPN14 (11732068_a_at) / Fold change /veh CAPN14 (11732068_a_at) / RFU TMCC2 (11721928_a_at) / Fold change /veh TMCC2 (11721928_a_at) / RFU IRGQ (11745062_a_at) / Fold change /veh IRGQ (11745062_a_at) / RFU FAM174B (11720279_a_at) / Fold change /veh FAM174B (11720279_a_at) / RFU TMPRSS4 (11748680_a_at) / Fold change /veh TMPRSS4 (11748680_a_at) / RFU FAM212B (11763350_a_at) / Fold change /veh FAM212B (11763350_a_at) / RFU PLEKHG5 (11743358_a_at) / Fold change /veh PLEKHG5 (11743358_a_at) / RFU ZSCAN30 (11745921_a_at) / Fold change /veh ZSCAN30 (11745921_a_at) / RFU CMKLR1 (11741424_a_at) / Fold change /veh CMKLR1 (11741424_a_at) / RFU LOC101060620 /// MAPK8IP1 (11723275_at) / Fold change /veh LOC101060620 /// MAPK8IP1 (11723275_at) / RFU SPTSSB (11747773_x_at) / Fold change /veh SPTSSB (11747773_x_at) / RFU PRSS12 (11739890_at) / Fold change /veh PRSS12 (11739890_at) / RFU BIN1 (11741810_x_at) / Fold change /veh BIN1 (11741810_x_at) / RFU WNT11 (11732464_a_at) / Fold change /veh WNT11 (11732464_a_at) / RFU C10orf10 (11716521_a_at) / Fold change /veh C10orf10 (11716521_a_at) / RFU C5orf56 (11738089_at) / Fold change /veh C5orf56 (11738089_at) / RFU CYB561 (11721691_x_at) / Fold change /veh CYB561 (11721691_x_at) / RFU ANKRD19P (11752326_a_at) / Fold change /veh ANKRD19P (11752326_a_at) / RFU OR2T12 /// OR2T33 /// OR2T8 (11738714_s_at) / Fold change /veh OR2T12 /// OR2T33 /// OR2T8 (11738714_s_at) / RFU VCAN (11748164_a_at) / Fold change /veh VCAN (11748164_a_at) / RFU JSRP1 (11732532_at) / Fold change /veh JSRP1 (11732532_at) / RFU KRTAP10-11 (11738290_x_at) / Fold change /veh KRTAP10-11 (11738290_x_at) / RFU MYO3A (11730013_a_at) / Fold change /veh MYO3A (11730013_a_at) / RFU EBF3 (11725865_a_at) / Fold change /veh EBF3 (11725865_a_at) / RFU CAMK2N1 (11719241_x_at) / Fold change /veh CAMK2N1 (11719241_x_at) / RFU C5orf56 (11738088_a_at) / Fold change /veh C5orf56 (11738088_a_at) / RFU OLFML3 (11715873_a_at) / Fold change /veh OLFML3 (11715873_a_at) / RFU LOC100653217 /// NTM (11731650_a_at) / Fold change /veh LOC100653217 /// NTM (11731650_a_at) / RFU MAPK11 (11762145_a_at) / Fold change /veh MAPK11 (11762145_a_at) / RFU FIZ1 (11724087_x_at) / Fold change /veh FIZ1 (11724087_x_at) / RFU OASL (11726364_x_at) / Fold change /veh OASL (11726364_x_at) / RFU SOX15 (11748057_x_at) / Fold change /veh SOX15 (11748057_x_at) / RFU CD79A (11719716_a_at) / Fold change /veh CD79A (11719716_a_at) / RFU HIST1H1D (11736915_at) / Fold change /veh HIST1H1D (11736915_at) / RFU CASKIN2 (11723855_a_at) / Fold change /veh CASKIN2 (11723855_a_at) / RFU LOC730098 (11760151_x_at) / Fold change /veh LOC730098 (11760151_x_at) / RFU OR4N2 (11742367_at) / Fold change /veh OR4N2 (11742367_at) / RFU PRRT2 (11749266_a_at) / Fold change /veh PRRT2 (11749266_a_at) / RFU SNX32 (11753110_a_at) / Fold change /veh SNX32 (11753110_a_at) / RFU CDHR5 (11726645_a_at) / Fold change /veh CDHR5 (11726645_a_at) / RFU RCAN1 (11760418_a_at) / Fold change /veh RCAN1 (11760418_a_at) / RFU FAM167A (11723789_a_at) / Fold change /veh FAM167A (11723789_a_at) / RFU FAM26E (11764081_at) / Fold change /veh FAM26E (11764081_at) / RFU ISYNA1 (11749810_s_at) / Fold change /veh ISYNA1 (11749810_s_at) / RFU ACY1 (11761880_at) / Fold change /veh ACY1 (11761880_at) / RFU 11764098_at / Fold change /veh 11764098_at / RFU SAMD14 (11745864_x_at) / Fold change /veh SAMD14 (11745864_x_at) / RFU NPB (11741838_a_at) / Fold change /veh NPB (11741838_a_at) / RFU TMPRSS6 (11731388_a_at) / Fold change /veh TMPRSS6 (11731388_a_at) / RFU KRTAP10-2 (11738614_at) / Fold change /veh KRTAP10-2 (11738614_at) / RFU ARHGAP8 /// PRR5-ARHGAP8 (11727945_x_at) / Fold change /veh ARHGAP8 /// PRR5-ARHGAP8 (11727945_x_at) / RFU KRTAP5-7 /// NADSYN1 (11734609_at) / Fold change /veh KRTAP5-7 /// NADSYN1 (11734609_at) / RFU RASL12 (11751679_a_at) / Fold change /veh RASL12 (11751679_a_at) / RFU CDKN2B (11736163_a_at) / Fold change /veh CDKN2B (11736163_a_at) / RFU PRF1 (11729649_at) / Fold change /veh PRF1 (11729649_at) / RFU, ZNF638 /// ZNF638-IT1 / Fold change vs veh, ZNF638 /// ZNF638-IT1 / RFU, PANK3 / Fold change vs veh, PANK3 / RFU, SH3YL1 / Fold change vs veh, SH3YL1 / RFU, ZEB2 / Fold change vs veh, ZEB2 / RFU, NRIP1 / Fold change vs veh, NRIP1 / RFU, PTTG1IP / Fold change vs veh, PTTG1IP / RFU, CAPN2 / Fold change vs veh, CAPN2 / RFU, MED14 / Fold change vs veh, MED14 / RFU, SNORA58 / Fold change vs veh, SNORA58 / RFU, C1orf63 / Fold change vs veh, C1orf63 / RFU, LRRFIP1 / Fold change vs veh, LRRFIP1 / RFU, NDUFAF7 / Fold change vs veh, NDUFAF7 / RFU, SLC12A2 / Fold change vs veh, SLC12A2 / RFU, IBTK / Fold change vs veh, IBTK / RFU, ESF1 / Fold change vs veh, ESF1 / Fold change vs veh, TMEM50B / RFU, TAOK1 / Fold change vs veh, TAOK1 / RFU, ACBD3 / Fold change vs veh, ACBD3 / RFU, TMA16 / Fold change vs veh, TMA16 / RFU, RWDD3 / Fold change vs veh, RWDD3 / RFU, BCAT1 / Fold change vs veh, BCAT1 / RFU, EDEM3 / Fold change vs veh, EDEM3 / RFU, TMEM33 / Fold change vs veh, TMEM33 / RFU, WDR75 / Fold change vs veh, WDR75 / RFU, AHCTF1 / Fold change vs veh, AHCTF1 / RFU, TFRC / Fold change vs veh, TFRC / RFU, ZDHHC17 / Fold change vs veh, ZDHHC17 / RFU, NOM1 / Fold change vs veh, NOM1 / RFU, ARL8B / Fold change vs veh, ARL8B / RFU, ZBTB11 / Fold change vs veh, ZBTB11 / RFU, TAMM41 / Fold change vs veh, TAMM41 / RFU, KIAA1704 /// LOC100996395 / Fold change vs veh, KIAA1704 /// LOC100996395 / RFU, ING1 / Fold change vs veh, ING1 / RFU, TRMT61B / Fold change vs veh, TRMT61B / RFU, FUBP3 / Fold change vs veh, FUBP3 / RFU, TP53 / Fold change vs veh, TP53 / RFU, TNKS2 / Fold change vs veh, TNKS2 / RFU, ZFP14 / Fold change vs veh, ZFP14 / RFU, ACTR2 / Fold change vs veh, ACTR2 / RFU, PPP3R1 / Fold change vs veh, PPP3R1 / RFU, PIK3R1 / Fold change vs veh, PIK3R1 / RFU, HNRNPA1 / Fold change vs veh, HNRNPA1 / RFU, RNF170 / Fold change vs veh, RNF170 / RFU, ZNF28 / Fold change vs veh, ZNF28 / RFU, RNGTT / Fold change vs veh, RNGTT / RFU, OGT / Fold change vs veh, OGT / RFU, BRD1 / Fold change vs veh, BRD1 / RFU, MARS / Fold change vs veh, MARS / RFU, ZNF655 / Fold change vs veh, ZNF655 / RFU, FAHD1 / Fold change vs veh, FAHD1 / RFU, BDP1 / Fold change vs veh, BDP1 / RFU, LRRCC1 / Fold change vs veh, LRRCC1 / RFU, ARID1A / Fold change vs veh, ARID1A / RFU, ZNF146 / Fold change vs veh, ZNF146 / RFU, ZNF330 / Fold change vs veh, ZNF330 / RFU, GPN3 / Fold change vs veh, GPN3 / RFU, C9orf123 / Fold change vs veh, C9orf123 / RFU, N4BP2L2 / Fold change vs veh, N4BP2L2 / RFU, ARFIP1 / Fold change vs veh, ARFIP1 / RFU, FAM179B / Fold change vs veh, FAM179B / RFU, BCL10 / Fold change vs veh, BCL10 / RFU, UHRF1BP1L / Fold change vs veh, UHRF1BP1L / RFU, BET1 / Fold change vs veh, BET1 / RFU, CNOT2 / Fold change vs veh, CNOT2 / RFU, ZNF268 / Fold change vs veh, ZNF268 / Fold change vs veh, ZNF507 / RFU, DGCR2 / Fold change vs veh, DGCR2 / RFU, WDSUB1 / Fold change vs veh, WDSUB1 / Fold change vs veh, HSP90B1 /// MIR3652 / RFU, ADSS / Fold change vs veh, ADSS / RFU, GK / Fold change vs veh, GK / RFU, ZNF148 / Fold change vs veh, ZNF148 / RFU, TAF9 / Fold change vs veh, TAF9 / RFU, SLC1A5 / Fold change vs veh, SLC1A5 / RFU, SLMO2 / Fold change vs veh, SLMO2 / RFU, ABCC4 / Fold change vs veh, ABCC4 / RFU, LOC101060439 /// RAP1B / Fold change vs veh, LOC101060439 /// RAP1B / RFU, RFX7 / Fold change vs veh, RFX7 / RFU, GTPBP10 / Fold change vs veh, GTPBP10 / RFU, CNEP1R1 / Fold change vs veh, CNEP1R1 / RFU, BIVM-ERCC5 /// ERCC5 / Fold change vs veh, BIVM-ERCC5 /// ERCC5 / RFU, ILF3 / Fold change vs veh, ILF3 / RFU 11762660_at / Fold change /veh 11762660_at / RFU VCAN (11757783_s_at) / Fold change /veh VCAN (11757783_s_at) / RFU DDX43 (11728927_at) / Fold change /veh DDX43 (11728927_at) / RFU KRT8 (11758188_x_at) / Fold change /veh KRT8 (11758188_x_at) / RFU NKD1 (11759106_at) / Fold change /veh NKD1 (11759106_at) / RFU SRD5A1 (11742802_a_at) / Fold change /veh SRD5A1 (11742802_a_at) / RFU TPSAB1 /// TPSB2 (11721975_s_at) / Fold change /veh TPSAB1 /// TPSB2 (11721975_s_at) / RFU GSTM3 (11746129_a_at) / Fold change /veh GSTM3 (11746129_a_at) / RFU IL23R (11737362_x_at) / Fold change /veh IL23R (11737362_x_at) / RFU TMEM51 (11727254_a_at) / Fold change /veh TMEM51 (11727254_a_at) / RFU PIWIL2 (11732686_x_at) / Fold change /veh PIWIL2 (11732686_x_at) / RFU ORM1 (11744905_x_at) / Fold change /veh ORM1 (11744905_x_at) / RFU CCDC152 (11743942_at) / Fold change /veh CCDC152 (11743942_at) / RFU ECM1 (11717891_a_at) / Fold change /veh ECM1 (11717891_a_at) / RFU IL23R (11748794_a_at) / Fold change /veh IL23R (11748794_a_at) / RFU TNFAIP8L3 (11732012_x_at) / Fold change /veh TNFAIP8L3 (11732012_x_at) / RFU MBOAT4 (11741988_at) / Fold change /veh MBOAT4 (11741988_at) / RFU 11764193_at / Fold change /veh 11764193_at / RFU TMEM53 (11763286_at) / Fold change /veh TMEM53 (11763286_at) / RFU MAGEB2 (11727129_at) / Fold change /veh MAGEB2 (11727129_at) / RFU TMEM200A (11744735_a_at) / Fold change /veh TMEM200A (11744735_a_at) / RFU CCDC152 (11751479_a_at) / Fold change /veh CCDC152 (11751479_a_at) / RFU FAM211A (11726209_a_at) / Fold change /veh FAM211A (11726209_a_at) / RFU RGS16 (11746705_a_at) / Fold change /veh RGS16 (11746705_a_at) / RFU VCAN (11755009_s_at) / Fold change /veh VCAN (11755009_s_at) / RFU RHOB (11743442_s_at) / Fold change /veh RHOB (11743442_s_at) / RFU RGS16 (11720943_a_at) / Fold change /veh RGS16 (11720943_a_at) / RFU RGS16 (11720944_at) / Fold change /veh RGS16 (11720944_at) / RFU, VPS4B / Fold change vs veh, VPS4B / RFU, CREB1 / Fold change vs veh, CREB1 / RFU, DNAJC13 / Fold change vs veh, DNAJC13 / RFU, GNAQ / Fold change vs veh, GNAQ / RFU, CDK5R1 / Fold change vs veh, CDK5R1 / RFU, ZRANB3 / Fold change vs veh, ZRANB3 / RFU, CUL4A / Fold change vs veh, CUL4A / RFU, CCNY / Fold change vs veh, CCNY / RFU, UFL1 / Fold change vs veh, UFL1 / RFU, COG3 / Fold change vs veh, COG3 / RFU, DIAPH2 / Fold change vs veh, DIAPH2 / RFU, SKA2 / Fold change vs veh, SKA2 / RFU, AFF3 / Fold change vs veh, AFF3 / RFU, LMF1 / Fold change vs veh, LMF1 / RFU, IPO11 / Fold change vs veh, IPO11 / RFU, DFFB / Fold change vs veh, DFFB / RFU, FOXP1 / Fold change vs veh, FOXP1 / RFU, CARD8 / Fold change vs veh, CARD8 / RFU, STRN3 / Fold change vs veh, STRN3 / RFU, ADK / Fold change vs veh, ADK / RFU, RASSF2 / Fold change vs veh, RASSF2 / RFU, WIPF1 / Fold change vs veh, WIPF1 / RFU, LARP1B / Fold change vs veh, LARP1B / RFU, RASA1 / Fold change vs veh, RASA1 / RFU, RB1 / Fold change vs veh, RB1 / RFU, PPFIA1 / Fold change vs veh, PPFIA1 / RFU, MAT2A / Fold change vs veh, MAT2A / RFU, CCT5 / Fold change vs veh, CCT5 / RFU, WDR92 / Fold change vs veh, WDR92 / RFU, CUX1 / Fold change vs veh, CUX1 / RFU, TTC7A / Fold change vs veh, TTC7A / RFU, TMEM135 / Fold change vs veh, TMEM135 / RFU, DEPTOR / Fold change vs veh, DEPTOR / RFU, CPM / Fold change vs veh, CPM / RFU, DNAJB6 / Fold change vs veh, DNAJB6 / RFU, CACNA2D3 / Fold change vs veh, CACNA2D3 / RFU, DTX4 / Fold change vs veh, DTX4 / RFU, TFCP2 / Fold change vs veh, TFCP2 / RFU, GMCL1 /// GMCL1P1 / Fold change vs veh, GMCL1 /// GMCL1P1 / RFU, AEBP2 / Fold change vs veh, AEBP2 / RFU, SNHG1 /// SNORD22 /// SNORD25 /// SNORD26 /// SNORD27 /// SNORD28 /// SNORD29 /// SNORD31 / Fold change vs veh, SNHG1 /// SNORD22 /// SNORD25 /// SNORD26 /// SNORD27 /// SNORD28 /// SNORD29 /// SNORD31 / Fold change (Aza/veh), C12orf56 (ProbeSet 11735607_a_at) / Fold change (ACY-1035/veh), C12orf56 (ProbeSet 11735607_a_at) / Fold change (Aza/veh), FGFR1OP (ProbeSet 11751329_s_at) / Fold change (ACY-1035/veh), FGFR1OP (ProbeSet 11751329_s_at) / Fold change (Aza/veh), VPS36 (ProbeSet 11739960_a_at) / Fold change (ACY-1035/veh), VPS36 (ProbeSet 11739960_a_at) / RFU SYPL1 (11715823_x_at) / Fold change /veh SYPL1 (11715823_x_at) / RFU IGFBP7 (11715501_s_at) / Fold change /veh IGFBP7 (11715501_s_at) / RFU REEP3 (11722064_at) / Fold change /veh REEP3 (11722064_at) / RFU IGLL1 (11728026_x_at) / Fold change /veh IGLL1 (11728026_x_at): dose or concentration left out as unconfirmed
Conditions: MV-4-11 cells, 48 hours

## Nc1ccc(-c2cccs2)cc1NC(=O)c1ccc2c(c1)cc(C1CC1)n2CCN1CCOCC1 [ACY-1035]
  Fold change /veh OR2T12 /// OR2T33 /// OR2T8 (11738714_s_at): 1.06
